Assay [1] concerns FGF2/FGFR3-mediated growth-arrest of rat chondrosarcoma (RCS) cells. The note with it: previous work [9, 12]; cited from earlier work.
In assay [2] the target is T1, recombinant tyrosine kinase (TK) domain of FGFR3 (Homo sapiens, UniProt P22607).
T1 construct: recombinant tyrosine kinase (TK) domain of FGFR3 (Glu-322-Thr-806; Cell Signaling); purchased Cell Signaling
Particulars: previous work [9, 12]; cited from earlier work.

In assay [3] the test system is FGF2/FGFR3-mediated growth-arrest of rat chondrosarcoma (RCS) cells.
Excerpt: In this assay, the FGF2/FGFR3-mediated growth-arrest of rat chondrosarcoma (RCS) cells is used as a reporter, thus allowing for elimination of toxic compounds as false-positive hits (Krejci, et al., Invest New Drugs 2007, 25: 391-395).
Rat chondrosarcoma chondrocytes (RCS), chinese hamster ovary (CHO) cells and MM cell lines OPM2 and KMS11 were propagated in DMEM, Opti-MEM or RPMI media (Gibco, Gaitherbsburg, Md.), supplemented with 10% fetal bovine serum (Atlanta Biological, Nordeross, Ga.) and antibiotics. […] For the RCS growth-arrest experiments shown at FIGS. 1 and 4c, 1×10^4 RCS chondrocytes were seeded in 24-well tissue culture plates (Costar, Cambridge, Mass.), treated as indicated for 72 hours, and counted. FGF2 was obtained from R&D Systems (Minneapolis, Minn.); C-natriuretic peptide, suramin, NF023 and NF449 were from Calbiochem (San Diego, Calif.).
The target of assay [4] is T1, recombinant tyrosine kinase (TK) domain of FGFR3. Kind of assay: Cell-free FGFR3 kinase assay with STAT1 as substrate. It counts as biochemical. The note with it: added directly to the kinase reaction; FIG. 4. As for the experimental part: FIG. 4, in accordance with an embodiment herein, depicts 4,4′,4″,4′″-[carbonyl-bis[imino-5,1,3-benzenetriyl bis-{carbonylimino}]]tetrakis-{benzene-1,3-disulfonic acid} inhibits FGFR3 activity in a kinase assay. (a, b) Cell-free kinase assays were carried out as described herein, with recombinant tyrosine kinase (TK) domain of FGFR3 as a kinase, recombinant STAT1 as a substrate, and NF449 added directly to the kinase reaction. FGFR3-mediated phosphorylation of STAT1 was detected by WB with P-STAT1 (Y^701) antibody. The membrane was reprobed with FGFR3 and STAT1 antibodies to control for kinase and substrate quantity. The sample with ATP omitted serves as a negative control for the kinase reaction. Note the FGFR3-mediated phosphorylation of STAT1 is inhibited by 4,4′,4″,4′″-[carbonyl-bis[imino-5,1,3-benzenetriyl bis-{carbonylimino}]]tetrakis-{benzene-1,3-disulfonic acid}. The P-STAT1 and STAT1 signal was quantified by densitometry and expressed as a ratio between P-STAT1 and STAT1 signal for each given sample (b, lower graph). (c) The FGFR3 kinase assay was carried-out as described in (a) with 4,4′,4″,4′″-[carbonyl-bis[imino-5,1,3-benzenetriyl bis-{carbonylimino}]]tetrakis-{benzene-1,3-disulfonic acid}, 8,8′-[carbonylbis[imino-3,1-phenylenecarbonylimino{4-methyl-3,1-phenylene}carbonylimino]]bis-1,3,5-naphthalenetrisulfonic acid or 8,8′-[carbonylbis[imino-3,1-phenylene]]bis-{1,3,5-naphthalenetrisulfonic acid} added to the kinase reaction. Note the differential effects of 8,8′-[carbonylbis[imino-3,1-phenylenecarbonylimino{4-methyl-3,1-phenylene}carbonylimino]]bis-1,3,5-naphthalenetrisulfonic acid and 8,8′-[carbonylbis[imino-3,1-phenylene]]Bis-{1,3,5-naphthalenetrisulfonic acid} on the FGFR3-mediated phosphorylation of STAT1, which corresponds to their activity in the RCS growth-arrest experiment (lower graph). Data are an average from four wells with the indicated standard deviation. Statistically significant rescue of the growth arrest is indicated (Student's I-test; *-p<0.01).
OPM2 and KMS11 cells were lysed in ice-cold immunoprecipitation buffer (50 mM Tris-HCl pH 7.4, 150 mM NaCl, 0.5% NP-40, 1 mM EDTA, 25 mM NaF) supplemented with proteinase inhibitors and 10 mM sodium orthovanadate. Protein samples were resolved by SDS-PAGE and transferred onto a PVDF membrane. The following antibodies were used: Erk1/2, P-Erk1/2^T202/Y204, STAT1, P-STAT1^Y701 (Cell Signaling, Beverly, Mass.) and FGFR3 (Santa Cruz Biotechnology, Santa Cruz, Calif.). Western blotting signal was quantified by determining the integrated optical density (I.O.D.) of a given band using Scion Image software (Scion Corporation, Frederick, Mass.). Immunoprecipitations and FGFR3 kinase assays were performed as described. Briefly, the pRK7 vector encoding C-terminally FLAG-tagged K650E-FGFR3 was transfected into CHO cells using FuGENE6 reagent according to the manufacturer's protocol (Roche Applied Science, Indianapolis, Ind.). 48 hours after transfection, cells were treated with 20 ng/ml of FGF2 for 15 minutes and K650E-FGFR3 was immunoprecipitated from 800 μg of cell lysate protein using 4 μg of anti-FLAG antibody (Sigma-Aldrich, St. Louis, Mo.). Cells transfected with a plasmid encoding green fluorescent protein (pCCEY) serve as a negative control for the immunoprecipitation. Immunocomplexes were washed two times with kinase buffer (60 mM HEPES-NaOH pH 7.5, 3 mM MgCl2, 3 mM MnCl2, 3 μM Na3VO4, 1.2 mM dithiothreitol), and the kinase reactions were performed for 30 minutes at 30° C. in the presence of 2.5 μg of polyethylene glycol, 10 μM ATP, 300 ng of recombinant STAT1 (Active Motif, Carlsbad, Calif.) as a substrate, and NF449 added directly to the kinase reaction. Kinase assays utilizing recombinant tyrosine kinase (TK) domain of FGFR3 (Glu-322-Thr-806; Cell Signaling) were carried-out similarly, with 300 ng of kinase used in 50 μl reaction, and suramin, NF449 and NF023 added directly to the kinase reaction. […]

T1 sequence (P22607 322-806): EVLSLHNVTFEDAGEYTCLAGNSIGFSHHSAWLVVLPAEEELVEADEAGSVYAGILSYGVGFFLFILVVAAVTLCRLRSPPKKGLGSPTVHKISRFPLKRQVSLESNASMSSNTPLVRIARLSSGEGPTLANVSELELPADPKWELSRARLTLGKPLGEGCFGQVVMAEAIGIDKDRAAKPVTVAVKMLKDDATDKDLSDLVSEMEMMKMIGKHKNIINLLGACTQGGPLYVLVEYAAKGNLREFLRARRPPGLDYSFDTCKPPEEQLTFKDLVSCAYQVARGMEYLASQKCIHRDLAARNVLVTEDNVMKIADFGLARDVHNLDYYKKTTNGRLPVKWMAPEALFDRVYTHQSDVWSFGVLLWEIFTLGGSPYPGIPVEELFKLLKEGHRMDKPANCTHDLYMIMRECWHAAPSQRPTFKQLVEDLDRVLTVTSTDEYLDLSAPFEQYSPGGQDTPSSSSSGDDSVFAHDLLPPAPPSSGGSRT

In the case of `Cc1c[nH]c(/C=C2\C(=O)Nc3ccccc32)c1CCC(=O)O` [SU5402], in assay [1], the “concentration range inhibiting RCS growth arrest” value was 2 to 20 µM. Moreover, in assay [2], the “concentration range inhibiting FGFR3 kinase activity” value is 2 to 20 µM.
As for `Cc1ccc(C(=O)Nc2ccc(S(=O)(=O)O)c3cc(S(=O)(=O)O)cc(S(=O)(=O)O)c23)cc1NC(=O)c1cccc(NC(=O)Nc2cccc(C(=O)Nc3cc(C(=O)Nc4ccc(S(=O)(=O)O)c5cc(S(=O)(=O)O)cc(S(=O)(=O)O)c45)ccc3C)c2)c1` [suramin, 8,8′-[carbonylbis[imino-3,1-phenylenecarbonylimino{4-methyl-3,1-phenylene}carbonylimino]]bis-1,3,5-naphthalenetrisulfonic acid, reference compound], the “effect on FGF2/FGFR3-mediated growth arrest (in words)” value in assay [3] (RCS chondrocytes, FIGS. 1, 4c) is “reversed the FGF2/FGFR3-mediated growth arrest”. Further, the “effect on FGFR3 kinase activity (in words)” value in assay [4] is listed as “inhibited FGFR3 kinase activity”.
Take “C-natriuretic peptide [CNP, reference compound]”: the “rescue of the FGF2-mediated RCS growth-arrest” value in assay [3] (FIG. 1b, each agent alone, 72 hours) was approximately 23%.

Values taken from patent publication US20110166223A1, “METHODS OF INHIBITING FGFR3 SIGNALING” (CEDARS-SINAI MEDICAL CENTER, priority 2008, published 2011).
